In US10570177B2, “P3 peptidylic inhibitors for treating CAG-repeat RNA toxicity in polyglutamine diseases” (The Chinese University of Hong Kong, priority 2017, dated 2020):
Marks after values point to notes of the source that are not given here. Residues, ends and D or L forms follow the SMILES beside them. *: point of attachment. Palmitoyl = CCCCCCCCCCCCCCCC(=O)*

How the values were obtained:
DsRedCAG100 flies = assay: Pseudopupil assay in DsRedCAG100 Drosophila (expanded CAG RNA neurodegeneration); format: in vivo; conditions: for suppression of neurotoxicity / retinal degeneration: DsRedCAG100 flies, in words
From the text: Here the DsRedCAG0/100Drosophila model was utilized to investigate the suppressive effects of the P3 analogs on RNA toxicity. In this model, the CAG repeat is located in the 3′ untranslated region of the DsRed reporter gene-=. The transcribed expanded CAG RNA is not translated into polyQ protein, and thus the toxicity is solely attributed to the expression of DsRedCAG100 RNA. In brief, the expression of expanded CAG RNA causes severe retinal degeneration in the animal that can be quantified by a pseudopupil assay^7. Inhibitors that can suppress neurotoxicity will result in the recovery of the number of rhabdomeres within the ommatidium. To test the derivatives, third instar larvae were fed different amounts of peptide dissolved in sucrose solution for 2 hr and then allowed to culture in standard fly food until the flies were 12 days old, at which time they were sacrificed for the pseudopupil assay.
(§1) Flies were raised at 21.5° C. on cornmeal medium supplemented with dry yeast. Fly lines bearing UAS-DsRedCAG0 and UAS-DsRedCAG100 were kind gifts of Professor Nancy Bonini (University of Pennsylvania, USA). The gmr-GAL4 fly line was obtained from Bloomington Drosophila Stock Center. For pseudopupil assay, third instar larvae were fed with various amount of respective peptides dissolved in 2% sucrose solution for 2 hr and then continued to culture in standard fly food at 21.5° C.^38. Pseudopupil assay was performed on 12 day-old adult flies as mentioned previously^39. Images were captured by SPOT Insight CCD camera controlled by the SPOT Advanced software (Diagnostic instruments Inc.). Image processing was performed using the Adobe Photoshop CS software (Adobe). Each experiment was repeated at least 3 times (n=10 fly heads), and consistent results were obtained. For viability test of wild-type flies from egg to adult stage, eggs born within 5 hr were collected and cultured in fly food containing 10 or 50 μM of respective peptides at 21.5° C. Viability from egg-to-adult was calculated as the number of adult flies collected divided by the number of eggs examined. Each experiment was repeated for three times (at least 130 eggs were examined in each group). Two batches of independently synthesized peptides were used in the experiments.

[1] = Plasma pharmacokinetic study in SD rat; conditions: for AUC0-last: Intranasal administration (pre-treated with 0.5% chitosan)
Procedure: (§2) SD rats (180-200 g) were anesthetized with an intraperitoneal injection of ketamine (60 mg/kg) and xylazine (6 mg/kg) and received a minor surgery of cannulation with a polythene tube (0.4 mm i.d., 0.8 mm o.d., Harvard Apparatus, Holliston, Mass., USA) in the left jugular vein. The rats received an overnight recovery with free access to food and water. […] For the pharmacokinetic study, after the drug administration, blood samples were collected from the catheter at appropriate time intervals (2, 5, 10, 15, 20, 30, 45, 60, and 90 min). After each collection, 0.2 mL of saline containing 25 IU heparin was injected to compensate for the blood loss. Plasma was collected after centrifugation at 8000 rcf for 3.5 min and stored at −80° C. until analysis. For brain uptake study, at 20 min, the rat was anesthetized and perfused by 500 mL saline, and the whole brain was collected. The brain was wiped by tissue paper to remove excess water, meninges and blood vessels followed by storage at −80° C. until analysis.
Aliquot of plasma sample (80 μL) was mixed with 160 μL acetonitrile. The mixture was vortexed for 1 min and followed by centrifugation at 13000 rcf for 10 min. The supernatant was collect and subjected to LC/MS/MS analysis.
Agilent 6430 Triple Quadrupole LC/MS/MS system (Agilent Technologies, CA, USA) was employed for the analysis. For analysis of P3V8, chromatographic separation was achieved on a SunFire C8 Column (250 mm×4.6 mm, 5 μm). The mobile phase of water containing 0.2% formic acid (A) and acetonitrile (B) was used with a gradient elution (0-5 min, 20-70% B). The flow rate was 0.8 mL/min. Multiple reactions monitoring (MRM) with fragmentation transition of 500 to 129 in positive ion mode was employed for quantization of P3V8. […] Mobile phase of water (A) and acetonitrile (B) was used. The gradient elution for plasma samples was 0-4 min, 30-95% B, and for brain samples was 0-9 min, 10-95% B. The flow rate was 0.8 mL/min.
Plasma concentration verse time profiles were analyzed by WinNonlin (Pharsight Corporation, Mountain View, Calif., USA, Version 2.1) to obtain the pharmacokinetics parameters. Other data were analyzed by one-way ANOVA followed by post hoc Tukey test or unpaired t-test. “*”, “**”, “***” and “****” represent P<0.05, P<0.01, P<0.001 and P<0.0001 respectively, which are considered statistically significant.

[2] = Brain uptake study in SD rat
Procedure: as §2
To prepare brain homogenate, the whole brain of each rat was minced. Saline (2 mL/g brain) was added followed by ultrasonic probe homogenization on ice. For analysis of P3V8, aliquot of brain homogenate (100 μL) was mixed with 200 μL acetonitrile. The mixture was vortexed for 1 min and followed by centrifugation at 13000 rcf for 10 min to collect the supernatant. […]

DsRedCAG0 Drosophila = assay: Pseudopupil assay in DsRedCAG0 control Drosophila (toxicity of peptide); format: in vivo; conditions: up to 50 μM
Procedure: Because of the aim to develop P3V8 into a potent inhibitor that targets RNA toxicity in degenerating cells within the nervous system, it was assessed whether P3V8 had deleterious effects on neuronal cells by determining lactate dehydrogenase release in the culturing medium of rat cortical neurons.
as §1, with “For viability test of wild-type flies from egg to adult stage, eggs born within 5 hr were collected and cultured in fly food containing 10 or 50 μM of respective peptides at 21.5° C.” left out, “Each experiment was repeated for three times (at least 130 eggs were examined in each group). Two batches of independently synthesized peptides were used in the experiments.” left out

[3] = Intravenous administration, 3 μmol/kg, SD rats

Compound	suppression of neurotoxicity / retinal degeneration (DsRedCAG100 flies)	AUC0-last ([1]; 3 μmol/kg, SD rats)	Cmax [1, 3] [nM]	T1/2 [1, 3] [min]	plasma concentration 90 min after dosing ([1]; intravenous, 3 μmol/kg) [nM]	tissue level at time molar at 20 min ([2]; Sprague-Dawley, rat, in vivo, iv, 3 umol/kg) [nmol/g]	effect on DsRedCAG0 Drosophila (DsRedCAG0 Drosophila)	pseudopupil score (DsRedCAG100 flies; 1 μM treatment, 12 day-old flies)	T1/2 ([1]; rat, in vivo, iv, 3 umol/kg)	brain concentration ([2]; 20 min after intravenous administration, 3 μmol/kg)
CCCCCCCCCCCCCCCC(=O)N[C@@H](CC(=O)O)C(=O)NCC(=O)N[C@@H](CCCCN)C(=O)N[C@@H](CO)C(=O)N[C@@H](CCCCN)C(=O)NCC(=O)N[C@H](C(=O)N[C@@H](C)C(=O)N[C@@H](Cc1ccc(O)cc1)C(=O)N[C@H](C(=O)N[C@@H](CCC(=O)O)C(=O)N[C@@H](Cc1ccccc1)C(=O)N[C@@H](CCCCN)C(N)=O)[C@@H](C)CC)[C@@H](C)CC [L1P3V8] (Palmitoyl-DGKSKGIAYIEFK-NH2)	suppressed retinal degeneration	2277 ± 558*** min * nmol/L	10400 ± 1220	17	190	0.013	no cytotoxic effects	–	–	–
Ac-DGKSKGIAYIEFK-NH2 [P3V8]	significantly suppressed neurotoxicity	85 ± 32 nmol·min/L	452 ± 22	–	–	–	did not show any observable effect	4.32±0.25	too short to be determined	no and not detected
